Results as given in patent US20190262323A1, “COMPOSITIONS AND METHODS FOR TREATING NEURODEGENERATIVE DISORDERS” (GEORGETOWN UNIVERSITY, priority 2016, published 2019).

What was measured:
[1] = test system: Beclin, Atg7, Atg12, LC3-I, LC3-II; assay: Western blot of soluble brain fractions of treated APP mice: autophagy markers; type: in vivo, transgenic APP mice; conditions: 1.25 or 2.5 mg/kg
Description: (§1) Transgenic mice harboring the Swedish, Dutch, and Iowa mutation for human amyloid beta-precursor protein were treated with intraperitoneal (IP) injections of 10 mg/kg, 5 mg/kg, 2.5 mg/kg, 1.25 mg/kg of LCB 03-0110 or 30 μL of dimethylsulfoxide (DMSO) every day for 1 week. LCB 03-0110 is a potent inhibitor of discoidin domain receptor 2 (DDR2) family tyrosine kinases. All animal experiments were conducted in full compliance with the recommendations of Georgetown University Animal Care and Use Committee (GUAUC). Fifteen mice were used for brain and blood extractions, and fifteen mice were used for drug treatments. Four transgenic APP mice were treated with DMSO, four transgenic APP mice were treated with 10 mg/kg of LCB 03-0110, four transgenic APP mice were treated with 5 mg/kg of LCB 03-0110, four transgenic APP mice were treated with 2.5 mg/kg of LCB 03-0110, and three transgenic APP mice were treated with 1.25 mg/kg of LCB 03-0110. Seven transgenic APP mice were treated with DMSO, and 7 transgenic APP mice were treated with 2.5 mg/kg of LCB.
Brain tissues from transgenic APP mice treated with LCB 03-0110 at 10 mg/kg, 5 mg/kg, 2.5 mg/kg, and 1.25 mg/kg were homogenized in 1×STEN buffer, centrifuged at 10,000×g for 20 min at 4° C., and the supernatants containing the soluble fraction were collected. […]

[2] = Pharmacokinetic analysis of brain and serum by mass spectrometry; type: in vivo, C57BL/6 mice
Description: C57BL/6 mice received a single IP dose of 1.25, 2.5, 5, or 10 mg/kg LCB, and brain and serum were collected at 2, 4, 6, or 8 hours (n=3 per dose and time point). Animals injected with vehicle (DMSO) were used for background subtraction. Drug levels were determined at the Georgetown University Proteomics and Metabolomics Shared Resources (PMSR). Stock solution for LCB-03110 [(approximately 1 mg/mL each) was prepared in methanol/dichloromethane (50:50). The serial dilutions for each of the standards were produced for the study separately in methanol/HPLC grade water (50:50). Preparation of the calibration curve standards and quality samples (QC) was performed by mixing the stock solutions in blank samples. The final calibration concentration for LCB-03110 ranged from 0.1 ng/mL to 100 ng/mL. The QC concentrations were 30 ng/mL, 3 ng/mL and 0.3 ng/mL, respectively. Serum and brain samples were stored at −80° C. and then thawed to room temperature prior to preparation. The thawed serum samples (20 μL) were transfused to a tube containing 100 μL of water. The 500 μL extraction solvent and acetonitrile/methanol (50:50) was added to the sample. The mixture was vortexed and incubated on ice for 20 minutes to accelerate protein precipitation. After incubation, the samples were vortexed again and centrifuged at 13,000 rpm for 20 minutes at 4° C. The supernatant was then collected and transferred to a new tube, was dried using speed vac, and reconstituted in 200 μL of methanol/water (50:50). The mixture was spun again at 13,000 rpm for 20 minutes at 4° C. The supernatant was then collected into a mass spec sample tube cap and run in the mass spectrometer. For brain, a small section of the thawed brain sample from each animal was transferred to a flat bottom tube. 200 μL of methanol/water (90:10) was added, and the tissue was homogenized. Acetonitrile was then added to the mixture facilitating protein precipitation. The mixture was then incubated on ice for 10 minutes. After incubation, the samples were vortexed and centrifuged at 13,000 rpm for 20 minutes at 4° C. The supernatant was then collected and transferred to a new tube, dried using speed vac, and reconstituted in 200 μL of methanol/water (50:50). The mixture was centrifuged at 13,000 rpm for 20 minutes at 4° C. The supernatant was collected into a mass spec sample tube cap and run in the mass spectrometer. The samples were resolved on an Acquity UPLC BEH C18 […], 2.1×50 mm column online with a triple quadrupole mass spectrometer (Xevo-TQ-S, Waters Corporation, USA) operating in the multiple reaction monitoring (MRM) mode. The sample cone voltage and collision energies were optimized for both analytes to obtain maximum ion intensity for parent and daughter ions using “Intelli Start” feature of MassLynx software (Waters Corporation, USA). The instrument parameters were optimized to gain maximum specificity and sensitivity of ionization for the parent [m/z=438.25] and daughter ions [m/z=357.33]. Signal intensities from all MRM Q1/Q3 ion pairs for analytes were ranked to ensure selection of the most intense precursor and fragment ion pair for MRM-based quantitation. […] Analysis was performed with a six to eight-point calibration curve, the sample queue was randomized and solvent blanks were injected to assess sample carryover. MRM data were processed using TargetLynx 4.1. The relative quantification values of analytes were determined by calculating the ratio of peak areas of transitions of samples normalized to the peak area of the internal standard.

[3] = test system: APP/Aβ, Aβ42, p-tau (AT180); assay: Western blot of soluble brain fractions of treated APP mice: amyloid and p-tau; type: in vivo, transgenic APP mice
Description: as §1
Brain tissues from transgenic APP mice treated with LCB 03-0110 at 10 mg/kg, 5 mg/kg, 2.5 mg/kg, and 1.25 mg/kg were homogenized in 1×STEN buffer, centrifuged at 10,000×g for 20 min at 4° C., and the supernatants containing the soluble fraction were collected. Soluble fractions were probed with mouse monoclonal anti-6E10 (1:1000), rabbit polyclonal anti-Ab42 (1:1000), mouse monoclonal anti-AT180 (1:1000), rabbit polyclonal anti-Beclin-1 (1:1000), rabbit polyclonal anti-Atg7 (1:1000), rabbit polyclonal anti-Atg12 (1:1000), rabbit polyclonal anti-LC3B (1:1000) and rabbit polyclonal anti-actin (1:1000).

[4] = brain response values (Area/IS Area), single IP dose

## Oc1cccc(Nc2ccnc3cc(-c4cccc(CN5CCOCC5)c4)sc23)c1 [LCB 03-0110, 3-(2-(3-(morpholinomethyl)phenyl)thieno[3,2-b]pyridine-7-ylamino)phenol]
[1]
  autophagy and autophagosomes (Beclin, Atg7, Atg12, LC3-I, LC3-II Western blot): stimulates autophagy and clears autophagosomes
[1]; n=5
  level of LC3-II/LC3-I, densitometry analysis of LC3-II levels: significantly reduces
[2]; 2.5 mg/kg
  Tmax of the plasma:brain ratio: about 2 hours
[2]; 2.5 mg/kg, among 10, 5, 2.5 and 1.25 mg/kg
  plasma:brain ratio, comparison of doses: highest plasma:brain ratio
[2]; 10 mg/kg, among 10, 5, 2.5 and 1.25 mg/kg
  drug concentration in the brain, comparison of doses: highest drug concentration in the brain
[2]; [4]
  time at which washed out completely from the brain: about 4 hours
  time of peak in the brain: about 1 hour
[2]; single IP dose 1.25, 2.5, 5 or 10 mg/kg
  blood brain barrier penetration: penetrates the blood brain barrier
[3]; 1.25 or 2.5 mg/kg daily, after one week
  levels of p-tau (AT180) (Western blot): reduced
[3]; 1.25 or 2.5 mg/kg daily, after one week, actin loading control
  levels of APP/Aβ (Western blot): reduced
[3]; n=5, 3 mutant APP mice, about 2.5 mg/kg or less
  levels of amyloid, densitometry analysis: significantly reduced
[3]; soluble brain fraction, 1.25 or 2.5 mg/kg daily, one week
  beta-amyloid (Aβ42) levels (Western blot): effective in reducing
